Reference: patent US7871978B2, “Bone tropic peptides” (University of Virginia Patent Foundation, priority 2004, dated 2011)
Entries after “also recorded” stand apart in the source; their conditions may differ.

Columns and labels:
[1] = tested on: Unicortical femoral defects; assay: Peptide-mediated osteogenesis in cortical bone defects (Example 8); assay type: in vivo, Fisher 344 rats; conditions: for Histological appearance of repair tissue in the defect / Effectiveness at stimulating osteogenesis and cortical bone repair: 100 mM peptide in gelfoam, two weeks postoperatively; for Effectiveness at stimulating osteogenesis and cortical bone repair: versus gelfoam+PBS
Method in brief: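 Peptides (100 mM in a 1.5 × 2 mm gelfoam carrier) were placed in 1.5 mm unicortical femoral defects in Fisher 344 rats, with the contralateral defect given gelfoam+PBS as control, and harvested at two weeks. L7 was also dosed at 1, 5 and 20 mM, and 20 mM L7 was followed over 5, 10, 15 and 20 days.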

[2] = tested on: bovine aortic endothelial cells; assay: Effect of peptides on adherent bovine aortic endothelial cells on fibronectin or collagen; assay type: cell-based; conditions: 0.1M biotinylated peptide, 1 hour; cells adhered four hours on fibronectin or collagen
Method in brief: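 Bovine aortic endothelial cells on fibronectin- or collagen-coated glass slides (5,000 cells/well) received biotinylated peptides in PBS/1% BSA for 1 h after 4 h, 48 h or ~6 h adherence, at 0.1M down to 0.0001M. Cells were fixed in 2% paraformaldehyde, then stained with ExtrAvidin-FITC overnight at 4 °C; fluorescence microscopy.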

bone and bone marrow = assay: In vivo biopanning with 12-mer peptide phage display library; design: species or system BALB/c mice; conditions: for PERCENT FREQUENCY: phage eluted from bone and bone marrow; for PHAGE SEQUENCE FREQUENCY (number of times the sequence was found in a group of plaques): phage eluted from bone and bone marrow after repeated rounds
Method in brief: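 BALB/c mice (8 weeks) received 3.4×10^10 pfu of a 12-mer peptide phage library (pIII fusion, GGGS spacer) by intracardiac injection and were euthanized after 5 min. Bound phage eluted from bone and bone marrow was titered, amplified and re-injected at the same dose. Peptide frequency was compared with liver, kidney, lung, spleen and brain; sequences identified by phage DNA sequencing.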

[3] = tested on: bone and marrow tissue sections (mouse femur, rib); assay: Biotinylated peptide binding to bone/marrow tissue sections, Avidin-FITC fluorescence; design: key to Localization of peptide binding: Bone/Marrow (tissue sections): ✓: Check marks indicate positive binding observed with FITC; −: a dash indicates a negative result; conditions: for Localization of peptide binding: Bone/Marrow (tissue sections): FITC; for Binding to rib and long bone growth plate sections: biotinylated peptides, 1/50,000 dilution of Avidin-FITC
Protocol: Methods: Four-week old Swiss Webster mice were euthanized; the femurs were excised and decalcified in 0.25M EDTA in PBS solution for 5 days, and washed in PBS for 24 hours. The femoral shafts were obtained by cutting off the proximal and distal ends of the femur. The femoral shafts were placed in Tissue-Tek O.C.T. Compound (Sukura Finetek, Torrance, Calif.) and frozen at −20° C. overnight. Sections were cut at 10 μm serially with a cryomicrotome, rinsed with 1% BSA in PBS three times. To block non-specific reaction sections were incubated with Avidin/Biotin Blocking Kit (Vector Laboratories, Inc. Burlingame, Calif.) according to the manufacturer's instructions. Following another rinse with PBS, 150 μl 10 mM solution of each biotinylated peptide (L1, L2, L7, R1, R8) was added to the slides and incubated for 1 hour at room temperature. In negative controls, only PBS was added. After rewashes with 1% BSA, 150 μl of 1:50,000 dilution of Avidin-FITC was added to each slide and incubated overnight at 4° C.
The sections were washed with 1% BSA in PBS and mounted with Vectashield (Vector Laboratories Inc., Burlingame, Calif.). Fluorescence was visualized using a Nikon eclipse E600 microscope (Nikon, Melville, N.Y.) equipped with a 535 nm wavelength fluorescein filter. Images were obtained using a Sony DKC-5000 digital camera (Sony Electronics Inc.) and processed with Adobe Photoshop software (Adobe Systems Incorporated, San Jose, Calif.).
(§1) For localization of peptide binding to cells and tissue sections, biotinylated peptides were synthesized. Fluorescein-isothiocyanate (FITC) labeled Avidin was used to localize the peptides on cells in culture and in tissue sections in vitro by epiluminescence microscopy. In addition, the biotinylated peptides were detected at concentrations as low as 1 μM in slot blots.
Cryosections of decalcified femurs harvested from 4 week BALB/c mice were incubated with biotinylated peptide and Avidin-FITC. […] The distribution of fluorescence throughout the marrow was uneven. […] In control slides incubated with PBS without peptide, none of the cells could be detected by fluorescence (not shown). […]

[4] = tested on: bovine aortic endothelial cells (BAEC); assay: Peptide binding to BAEC in culture (Avidin-FITC); design: key: ✓: Check marks indicate positive binding observed with FITC; −: a dash indicates a negative result
Protocol: as §1
Bone marrow cells isolated from mouse femur were lifted with ethylenediaminetetraacetic acid (EDTA) and trypsin, resuspended, and allowed to attach on fibronectin-coated chamber slides for Avidin-FITC staining. […] The D1 cell is a multipotential mesenchymal stem-like line that was isolated from bone marrow and shown to have the characteristics of osteoprogenitor cells. This cell line has been well established and used successfully in several in vitro and in vivo studies in our laboratory. Peptide binding to human bone marrow endothelial cells (HBME) and bovine aortic endothelial cells (BAEC) in culture was also tested using the same procedure.

[5] = BALB/c mouse decalcified femur cryosections, biotinylated peptide and Avidin-FITC
[6] = BALB/c mouse femur cryosections, biotinylated peptide
[7] = Swiss Webster mouse decalcified femur cryosections, 10 mM biotinylated peptide, 1 hour, Avidin-FITC
[8] = Swiss Webster mouse femur cryosections, 10 mM biotinylated peptide
[9] = biotinylated peptide, Avidin-FITC

Row | Substance | New bone formation versus corresponding controls at every time point ([1]; 20 mM, 5, 10, 15, and 20 days) | Time course of cortical bone repair ([1]; 20 mM, 5, 10, 15, and 20 days) | Histological appearance of repair tissue in the defect [1] | Effectiveness at stimulating osteogenesis and cortical bone repair [1] | Amount of bone that regenerated versus controls without peptide ([1]; 1, 5, and 20 mM) | Effect of peptide concentration on cortical bone regeneration ([1]; 1, 5, and 20 mM) | Effect on adherent BAEC (Experiment 1) [2] | PERCENT FREQUENCY (bone and bone marrow) | PHAGE SEQUENCE FREQUENCY (number of times the sequence was found in a group of plaques) (bone and bone marrow) | Fluorescence detected in femur sections incubated with peptide [3, 5] | Cell shape preferentially recognized by peptide [3, 6] | Extent of marrow cells detected by fluorescence [3, 6] | Localization of peptide binding: Bone/Marrow (tissue sections) [3] | Fluorescence detected in femur sections incubated with peptide [3, 7] | Cell shape preferentially recognized by peptide [3, 8] | Extent of marrow cells detected by fluorescence [3, 8] | Localization of peptide binding: BAEC [4] | Binding to bone and marrow in cryosections of mouse femur [3, 9] | Binding to fresh frozen sections of mouse rib [3, 9] | Binding to rib and long bone growth plate sections [3]
1 | ASN-SER-MET-ILE-ALA-HIS-ASN-LYS-THR-ARG-MET-HIS-GLY-GLY-GLY-SER (NSMIAHNKTRMHGGGS; listed as Homo sapiens) [Peptide L7] | new bone formation was greater in the defects treated with peptide compared with the corresponding controls | Cortical bone regeneration increased with time | considerable amounts of cortical bone in the defects | potentiate bone regeneration in vivo; also recorded: most effective at stimulating osteogenesis and cortical bone repair; also recorded: most effective peptides for osteogenesis and repair of cortical defects | increased with all the concentrations of peptide, even at 1 mM and 5 mM compared with the controls without peptide | Osteogenesis was most pronounced with the highest concentration of peptide | the cells lifted and formed clusters that stained intensely | 3.6% | 1/28 | Fluorescence was detected | Cells that appeared morphologically elongated showed the highest fluorescence intensity | most of the cells were detectable but fluorescence intensity was variable | ✓ | Fluorescence was detected | Cells that appeared morphologically elongated showed the highest fluorescence intensity | most of the cells were detectable but fluorescence intensity was variable | ✓ |  |  | 
2 | SER-GLY-HIS-GLN-LEU-LEU-LEU-ASN-LYS-MET-PRO-ASN-GLY-GLY-GLY-SER (SGHQLLLNKMPNGGGS; listed as Homo sapiens) [Peptide L13] |  |  | a considerable amount of gelfoam remaining in the defects, with thinner and more loosely organized cortical bone | least effective for cortical bone repair |  |  | no effect, with results similar to PBS | 23.3% | 7/30 |  |  |  | ✓ |  |  |  | − | binds to areas of bone and marrow in cryosections of mouse femur | binds to fresh frozen sections of mouse rib containing bone and marrow cells | significant binding to rib and long bone growth plate
3 | ASN-TYR-SER-HIS-LEU-ARG-VAL-LYS-LEU-PRO-THR-PRO-GLY-GLY-GLY-SER (NYSHLRVKLPTPGGGS; listed as Homo sapiens) [Peptide R1] |  |  | considerable amounts of cortical bone in the defects | potentiate bone regeneration in vivo; also recorded: most effective at stimulating osteogenesis and cortical bone repair; also recorded: most effective peptides for osteogenesis and repair of cortical defects |  |  | the cells had lifted completely and most of the cells disappeared from the surface of the slides, leaving a lot of cell debris | 24.1% | 7/29 | Fluorescence was detected | recognized the round cells preferentially | did not detect as many cells | ✓ | Fluorescence was detected | recognized the round cells preferentially | did not detect as many cells | ✓ |  |  | significant binding to rib and long bone growth plate
